Measured values from patent US20080051597A1, “Process for Producing 2-Methyladamantan-2-Yl (Meth)Acrylate and 2-Methyladamantan-2-Yl (Meth)Acrylate” (Mitsubishi Chemical Corporation, priority 2004, published 2008).

Experiment: Solubility of methyleneadamantane in organic compound
Format: physicochemical
Conditions: supernatant analysed by gas chromatography
Method: To a predetermined amount of an organic solvent was added 2-methyleneadamantane in such an amount that it remains in the solvent after dissolution. After stirring the mixture while keeping the temperature at 0° C., the resulting mixture was allowed to stand. A supernatant was collected therefrom and its composition was analyzed by gas chromatography.
The solubility of 2-methyleneadamantane and the amount of 2-methyleneadamantane in the reaction product were measured by gas chromatography analysis described below. • Gas chromatography analyzer: “GC-14B”, product of Shimadzu Corporation • Column: “TC-1”, product of Tokyo Chemical Industry (inner diameter: 0.25 mm, thickness of filler: 0.25 μm, length: 60 m) • Feed port temperature: 150° C. • Detector: FID • Detector temperature: 280° C. • Conditions of column oven: The column oven was retained at 100° C. for 3 minutes, heated to 180° C. at 10° C./min, retained at 180° C. for 5 minutes, heated to 280° C. at 10° C./min, and then retained at 280° C. for 5 minutes.

For `C=C1C2CC3CC(C2)CC1C3` [methyleneadamantane, 2-methyleneadamantane], the “solubility of methyleneadamantane in 100 g of n-undecane at 0° C.” value was 101 g.
